# Patent US7119208B2, “Anti-sickling agents” (Virginia Commonwealth University, priority 2003, dated 2006)
# Several values for one entry are separate records, joined by “and”; a condition that tells them apart may be missing. Equal values may be shown once. Entries after “also recorded” stand apart in the source; their conditions may differ.
# How the values were obtained:
# AA cells = assay: Oxygen equilibrium studies with normal whole blood; format: cell-based, human; conditions: for n50 (Hill coefficient at 50% saturation in the presence of compound) / ΔP50 = P50d − P50c / P50d (value in the presence of compound): thiophene aldehydes, 5 mM, whole blood; for P50d (value in the presence of compound): repeat measurements; for P50: AA cells 40% hematocrit; for effect on the OEC of whole blood: normal adult whole blood, multi-point tonometry, in vitro
# Hb [1] = target: T1, Hb (Homo sapiens, UniProt P69905); conditions: Schiff base with N-terminal Val1 of T state Hb; cited from earlier work
# SS cells [2] = assay: Antisickling studies with homozygous sickle red blood cells; format: cell-based, human; conditions: for predicted antisickling activities: not determined, predicted from structure-activity relationships
# HbS [3] = target: T2, HbS (Homo sapiens, UniProt P68871+P69905, E7V); assay: HbS adduct formation, cation-exchange HPLC of hemolysate from compound-treated SS cells; format: cell-based; conditions: 5 mM compound, HPLC of hemolysate after incubation with SS cells
# T2 construct: The compound-treated SS cells obtained in the preceding experiment (oxygen equilibrium studies with SS cells) were hemolyzed; endogenous in cells; host or cells: homozygous sickle red blood (SS) cells from patients with SCD; hemolysate of the compound-treated cells
# Tg sickle mice = assay: In vivo antisickling effect in transgenic sickle mice exposed to hypoxia; conditions: 5% oxygen
# Source text: In vivo antisickling effect of 5-HMF was investigated using transgenic (Tg) mice that produce human Hb S. Since the blood of wild type mice has an extremely right-shifted OEC (P50 of mouse blood: 40–44 mm Hg) as compared with the OEC of human blood (P50 of AA cells: 26.5 mm Hg; SS cells: 32 mm Hg), Tg sickle mice that produce approximately equal amounts of human and mouse […] and 100% human β^s-globin were used in this study. The P50 of these mice are between 26 and 34 mm Hg depending on the percentage of mouse β-globin. We used 5% oxygen (5% O2, 95% N2), because they develop pulmonary sequestration almost exclusively upon exposure of these mice to 5% O2. […] Upon exposure to hypoxia, we determine the percentage of sickled cells in the blood as well as the survival time. […] In the hypoxia experiments, the Tg sickle mice were exposed to hypoxia for up to 1 hr; any surviving mice at 1 hr were euthanized by cervical dislocation under anesthesia. In all cases, after the mouse died, it was immediately dissected. The heart, lungs, brain, liver, spleen, and kidneys were fixed in 10% phosphate-buffered formalin. Tissue samples were embedded in paraffin according to standard methods. Sections were cut and stained by a hematoxylin-eosin solution for light microscopy.
# HbS [4] = target: T2, HbS; assay: Oxygen equilibrium analysis of hemolysate from compound-treated SS cells; format: cell-based; conditions: hemolysate after incubation of 5 mM compound with SS cells; for Hemolysate ΔP50: treated minus control
# Hb [5] = target: T1, Hb; assay: Co-crystallization of compounds with Hb, X-ray crystallography; format: binding; design: Purified human adult Hb in 50 mM Bis Tris buffer, pH 6.8, was prepared from discarded human blood; from tissue; host or cells: discarded human blood; Hb purified in house as in Safo and Abraham, 2003; conditions: deoxy Hb
# SS cells [6] = assay: Oxygen equilibrium studies with homozygous sickle red blood cells; format: cell-based, human; conditions: 5 mM compound; for SS cells P50: SS cells 10% hematocrit; for SS cells ΔP50: treated minus control
# Procedure: SS cells were suspended in PBS to a final hematocrit of 10%. […] A 40 uL aliquot of this suspension was added to 4 ml Hemox buffer and subjected to oxygen equilibrium analysis (37° C.) using a Hemox-Analyzer (TCS Scientific Corp., Southampton, Pa.) (Asakura, 1979).
# SS cells [7] = assay: Antisickling studies with homozygous sickle red blood cells; format: cell-based, human; conditions: for inhibition at 5000 µM: Homo sapiens, Erythrocyte, read-out: Inhibition of sickling of SS cells
# Procedure: Briefly, SS cells suspended in buffered saline solution, pH 7.4 (hematocrit of 10 %) were incubated at 37° C. with 4% oxygen in the presence of 5 mM compound. Aliquots (10 ul) of the suspensions were obtained after 5 hrs and fixed with 2% glutaraldehyde solution without exposure to air. Morphological analysis and percentage of SS cells that were not sickled were conducted using a computer-assisted image analysis system as described elsewhere (Hijiya, 1991).
# SS cells [8] = assay: Effect of compounds on homozygous sickle red blood cell size (MCV); format: cell-based, human; conditions: for changes in cell volumes of SS cells: 1, 2, and 5 mM compound
# Procedure: To study the effect of the compounds on the degree of hydration/dehydration of SS cells, the compound-treated SS cells obtained in the preceding experiment (antisickling studies with SS cells) were evaluated with a Hemavet Cell Analyzer to determine the mean corpuscular volume (MCV).
# patients with SCD = conditions: cited from earlier work; for clinical toxicity: human, in vivo
# [9] = cited from earlier work
# [10] = 5 mM compound, P50 of treated AA cells minus P50 of control
# [11] = 5 mM compound, 4% oxygen, 10% hematocrit, 5 hrs
structure (smiles),measurement,setting,value
O=Cc1cc(Br)cs1 [4-Bromo-2-thiophenecarboxyaldehyde],n50 (Hill coefficient at 50% saturation in the presence of compound),AA cells,2.41
same,ΔP50 = P50d − P50c,AA cells,−10.56 mmHg
same,P50d (value in the presence of compound),AA cells,16.85 mmHg and 17.49 mmHg
Cc1ccsc1C=O [3-Methyl-2-thiophenecarboxyaldehyde],n50 (Hill coefficient at 50% saturation in the presence of compound),AA cells,2.35
same,ΔP50 = P50d − P50c,AA cells,−7.01 mmHg
same,P50d (value in the presence of compound),AA cells,21.55 mmHg and 20.63 mmHg
"Cc1cc(C=O)cc(C)c1O [DMHB, 3,5-dimethyl-4-hydroxybenzaldehyde]",shift of the OEC,Hb [1],shift the OEC toward the left
"CCc1ccc(C=O)o1 [Compound 5EF, 5-Ethyl-2-furfuraldehyde]",predicted antisickling activities,SS cells [2],lie between those of FUF and 5HMF
same,n50 (Hill coefficient at 50% saturation),AA cells; 5 mM compound,1.77 ± 0.14
same,P50,"AA cells; 5 mM compound, 37° C.",10.13 ± 0.75 mmHg
same,ΔP50,AA cells; [10],−15.71 mmHg
"O=Cc1ccc(CO)o1 [Compound 5HMF, 5-hydroxymethyl-2-furfuraldehyde]",HbS adduct,HbS [3],70% and 70 ± 10.0%
same,percentage of sickled cells in the arterial blood,Tg sickle mice; 5HMF 100 mg/kg,reduced the formation of POSCs; also recorded: reduced the percentage of sickled cells
same,survival of more than half of the mice,Tg sickle mice; 5HMF pretreatment,> 25 min
same,survival time under hypoxia compared to control,Tg sickle mice; 5HMF pretreatment,significantly prolonged the survival time; also recorded: prolonged the survival time significantly; also recorded: about four times longer
same,Hemolysate P50,HbS [4],1.8 ± 0.3 mmHg
same,Hemolysate ΔP50,HbS [4],−9.4 mmHg
same,compound binding in T state co-crystals,Hb [5],only weak binding
same,Inhibition of sickling of SS cells,"SS cells [2]; 1 mM compound, 4% oxygen",13%
same,Sickling of SS cells,"SS cells [2]; 1 mM compound, 4% oxygen",87%
same,Inhibition of sickling of SS cells,"SS cells [2]; 2 mM compound, 4% oxygen",42%
same,Sickling of SS cells,"SS cells [2]; 2 mM compound, 4% oxygen",58%
same,SS cells P50,SS cells [6],6.0 ± 1.2 mmHg
same,SS cells ΔP50,SS cells [6],−25.2 mmHg
same,n50 (Hill coefficient at 50% saturation),AA cells; 1 mM compound,2.08 ± 0.14
same,ΔP50,AA cells; 1 mM compound,−6.65 mmHg
same,P50,AA cells; 1 mM compound,19.19 ± 1.51 mmHg
same,n50 (Hill coefficient at 50% saturation),AA cells; 2 mM compound,1.98 ± 0.08
same,ΔP50,AA cells; 2 mM compound,−10.80 mmHg
same,P50,AA cells; 2 mM compound,15.04 ± 0.51 mmHg
same,n50 (Hill coefficient at 50% saturation),AA cells; 5 mM compound,1.88 ± 0.06
same,P50,"AA cells; 5 mM compound, 37° C.",8.32 ± 0.40 mmHg
same,ΔP50,AA cells; [10],−17.52 mmHg
same,effect on the OEC of whole blood,AA cells,able to shift the OEC to the left
same,"inhibition of cell sickling, times more than FUF",SS cells [7]; 5 mM,~2.5 times
same,Inhibition of sickling of SS cells,SS cells [7]; [11],90%
same,Sickling of SS cells,SS cells [7]; [11],10%
same,MCV,SS cells [8]; 1 mM compound,62.5 fL
same,MCV,SS cells [8]; 2 mM compound,61.0 fL
same,MCV,SS cells [8]; 5 mM compound,61.4 fL
same,changes in cell volumes of SS cells,SS cells [8],did not result in changes in cell volumes
"COc1cc(C=O)ccc1O [Vanillin, vanillin, reference compound]",clinical toxicity,patients with SCD,clinically non-toxic
same,SS cells P50,SS cells [6],17.7 ± 2.2 mmHg
same,SS cells ΔP50,SS cells [6],−13.5 mmHg
same,n50 (Hill coefficient at 50% saturation),AA cells; 5 mM compound,1.98 ± 0.23
same,P50,"AA cells; 5 mM compound, 37° C.",19.06 ± 1.98 mmHg
same,ΔP50,AA cells; [10],−6.78 mmHg
same,Sickling of SS cells,SS cells [7]; [11],80%
same,inhibition at 5000 µM,SS cells [7]; [11],20%
same,acute oral LD50,[9]; species not stated,1580 mg/kg
same,LD50,[9]; unit taken from the 5HMF value in the same sentence,1580 mg/kg
same,MCV,SS cells [8]; 5 mM compound,61.0 fL
O=Cc1ccc(Br)s1 [5-Bromo-2-thiophenecarboxyaldehyde],n50 (Hill coefficient at 50% saturation in the presence of compound),AA cells,2.35
same,ΔP50 = P50d − P50c,AA cells,−6.63 mmHg
same,P50d (value in the presence of compound),AA cells,21.96 mmHg and 20.24 mmHg
"Cc1ccc(C=O)o1 [Compound 5MF, 5-Methyl-2-furfuraldehyde]",predicted antisickling activities,SS cells [2],lie between those of FUF and 5HMF
same,n50 (Hill coefficient at 50% saturation),AA cells; 5 mM compound,1.70 ± 0.06
same,P50,"AA cells; 5 mM compound, 37° C.",9.68 ± 0.24 mmHg
same,ΔP50,AA cells; [10],−16.16 mmHg
"O=Cc1ccco1 [FUF, 2-furfuraldehyde]",HbS adduct,HbS [3],24% and 24 ± 5.7%
same,Hemolysate P50,HbS [4],5.3 ± 0.6 mmHg
same,Hemolysate ΔP50,HbS [4],−5.9 mmHg
same,compound binding in T state co-crystals,Hb [5],only weak binding
same,Sickling of SS cells,"SS cells [2]; 1 mM compound, 4% oxygen",100%
same,Sickling of SS cells,"SS cells [2]; 2 mM compound, 4% oxygen",100%
same,inhibition at 1000 µM,"SS cells [2]; Homo sapiens, Erythrocyte, 1 mM compound, 4% oxygen, read-out: Inhibition of sickling of SS cells",0%
same,inhibition at 2000 µM,"SS cells [2]; Homo sapiens, Erythrocyte, 2 mM compound, 4% oxygen, read-out: Inhibition of sickling of SS cells",0%
same,SS cells P50,SS cells [6],15.4 ± 1.7 mmHg
same,SS cells ΔP50,SS cells [6],−15.8 mmHg
same,n50 (Hill coefficient at 50% saturation),AA cells; 5 mM compound,2.30 ± 0.01
same,P50,"AA cells; 5 mM compound, 37° C.",14.49 ± 0.06 mmHg
same,ΔP50,AA cells; [10],−11.35 mmHg
same,Sickling of SS cells,SS cells [7]; [11],70%
same,inhibition at 5000 µM,SS cells [7]; [11],30%
same,MCV,SS cells [8]; 1 mM compound,60.3 fL
same,MCV,SS cells [8]; 2 mM compound,60.0 fL
same,MCV,SS cells [8]; 5 mM compound,62.8 fL
same,changes in cell volumes of SS cells,SS cells [8],did not result in changes in cell volumes
"O=Cc1ccc(O)c(C(=O)O)c1 [FSA, 5-formylsalicylic acid]",shift of the OEC,Hb [1],shift the OEC toward the right
O=Cc1c(O)cccc1OCCCCC(=O)O [Compound 12C79],clinical toxicity,patients with SCD,clinically non-toxic
same,compound-Hb adducts,"patients with SCD; intravenous infusion 40 mg/kg, patients with SCD",more than 30%
"CCOC(=O)C1CSC(c2ccc(CO)o2)N1 (stereo not shown) [MSDD1, 5-hydroxymethyl-2-furfural-thiazolidine-4-carboxylic acid ethyl ester]",effect on the OEC of whole blood,AA cells,does not have effect on the OEC
